Measurements as given in PubChem BioAssay (NCI).
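Each compound was tested at five concentrations against cells in 96-well plates for 48 hours. The concentration for 50% growth inhibition is given as GI50. At the TGI there is no net growth.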

Legend:
Assay in all cases: NCI-60 cell line screen, 48 h
[1] = system: A498 renal
[2] = system: A549 NSCLC
[3] = system: HCT-116 colon
[4] = system: HCT-15 colon
[5] = system: HS 578T breast
[6] = system: K-562 leukemia
[7] = system: MALME-3M melanoma
[8] = system: MOLT-4 leukemia
[9] = system: OVCAR-8 ovarian
[10] = system: SF-295 CNS

SMILES | GI50 [1] | TGI [1] | GI50 [2] | TGI [2] | GI50 [3] | TGI [3] | GI50 [4] | TGI [4] | GI50 [5] | TGI [5] | GI50 [6] | TGI [6] | GI50 [7] | TGI [7] | GI50 [8] | TGI [8] | GI50 [9] | TGI [9] | GI50 [10] | TGI [10]
CC(=O)/C(Br)=C/c1ccc(Br)o1 | 17.4 µM | 33.7 µM | 26.8 µM | 86.4 µM | 2130 nM | 5.89 µM | 4200 nM | 16.1 µM | 2390 nM | 7.22 µM | 2990 nM | > 36.5 µM | 6.15 µM | 14.3 µM | 3030 nM | 15.3 µM | 3330 nM | > 35.8 µM | 18.7 µM | 38.7 µM
O=C1C=C(OCC=C(C(F)(F)F)C(F)(F)F)c2ccccc2C1=O | 4.36 µM | 16.6 µM | 5.91 µM | 27 µM | 2070 nM | 5.08 µM | 2060 nM | 5.7 µM | 2060 nM | 7.21 µM | 1970 nM | 5.42 µM | 1.56 µM | 3.11 µM | 2350 nM | 5.38 µM | 1630 nM | 3.12 µM | 14.6 µM | 30.3 µM
CC(=O)Nc1ccc(S(=O)(=O)N=S(C)C)cc1 |  | > 100 µM |  | > 100 µM |  | > 100 µM |  | > 100 µM |  | > 100 µM |  | > 100 µM |  | > 100 µM |  | > 100 µM |  | > 100 µM |  | > 100 µM
O=C(CCC(=O)Nc1cccc(C(F)(F)F)c1)CC(=O)c1ccc2ccccc2c1 |  | > 100 µM |  | > 100 µM |  | > 100 µM |  | > 100 µM |  |  |  | > 100 µM |  | > 100 µM |  | > 100 µM |  | > 100 µM |  | > 100 µM
COc1cc(/C=C(\NC(=O)c2ccccc2)c2nc3ncncc3[nH]2)cc(OC)c1OC |  |  |  | > 100 µM |  |  |  | > 100 µM |  |  |  | > 100 µM |  | > 100 µM |  | > 100 µM |  | > 100 µM |  | > 100 µM
COc1ccccc1/C=C\C(=O)C1COCN1 (stereo not drawn) |  |  |  | 48.8 µM |  | > 100 µM |  | 35.8 µM |  | 50.9 µM |  | > 100 µM |  | 45.7 µM |  | > 100 µM |  | 30.6 µM |  | 50.8 µM
N#C/C(=C1\OC(=N)C(c2ccccc2)C1=O)c1ccccc1 (stereo not drawn) |  | > 100 µM |  | > 100 µM |  | 31.6 µM |  | 60.2 µM |  |  |  | 74.6 µM |  | 36.8 µM |  | 74.6 µM |  | > 89.2 µM |  | > 100 µM
CC1=CP(=O)(c2ccccc2)C=C(C)C1=C(Cl)Cl (stereo not drawn) |  |  |  | > 100 µM |  | 10.1 µM |  |  |  |  |  | 13.6 µM |  |  |  | 21.6 µM |  | > 100 µM |  | 34.6 µM
Clc1cccc(CNc2c3ccccc3nc3ccccc23)c1 | 1.3 µM | 2.67 µM | 2.07 µM | 6.01 µM | 1350 nM | 3.41 µM | 1880 nM | 4.6 µM |  |  | 2390 nM | 11.2 µM | 1.61 µM | 3.02 µM | 2510 nM | 10.7 µM | 2410 nM | 8.93 µM | 1.51 µM | 3.08 µM
COc1cc([N+](=O)[O-])c(S(=O)(=O)O)cc1-n1nc(C(=O)Nc2ccccc2)n[n+]1-c1cc(S(=O)(=O)[O-])c([N+](=O)[O-])cc1OC |  |  |  | > 100 µM |  | > 100 µM |  | > 100 µM |  | > 100 µM |  | > 100 µM |  | > 100 µM |  | > 100 µM |  | > 100 µM |  | > 100 µM
O=C1C=C2CCCC2C(C(=O)O)(C(=O)O)C1 (stereo not drawn) |  | > 100 µM |  | > 100 µM |  | > 100 µM |  | > 100 µM |  |  |  | > 100 µM |  | > 100 µM |  | > 100 µM |  | > 100 µM |  | > 100 µM
CC1C=CC(C(N)C(=O)O)O1 (stereo not drawn) |  | > 100 µM |  | > 100 µM |  | > 100 µM |  | > 100 µM |  |  |  | > 100 µM |  | > 100 µM |  | > 100 µM |  | > 100 µM |  | > 100 µM
[N-]=[N+]=NCCCn1c2c(c3ccc([N+](=O)[O-])cc3c1=O)C(=O)c1cc(-c3ccccc3)ccc1-2 | > 100 µM | > 100 µM | > 100 µM | > 100 µM | > 100000 nM | > 100 µM | > 100000 nM | > 100 µM | 56500 nM | > 100 µM |  | > 100 µM | > 100 µM | > 100 µM |  |  | > 100000 nM | > 100 µM | > 100 µM | > 100 µM
O=C(N/C(=C\c1ccccc1O)c1nc2ccccc2[nH]1)c1ccccc1 |  | > 100 µM |  | > 100 µM |  | > 100 µM |  | > 100 µM |  |  |  | > 100 µM |  | > 100 µM |  | > 100 µM |  | > 100 µM |  | 
C/C=C/C(=O)[O-].C/C=C/C(=O)[O-].N.N.N.N.[Co+3].[O-][Cl+3]([O-])([O-])[O-] | > 100 µM | > 100 µM | > 100 µM | > 100 µM | > 100000 nM | > 100 µM | > 100000 nM | > 100 µM |  |  | > 100000 nM | > 100 µM | > 100 µM | > 100 µM | > 100000 nM | > 100 µM | > 100000 nM | > 100 µM | > 100 µM | > 100 µM
O=C(N=c1nc(NC(=O)c2ccccc2)ss1)c1ccccc1 |  | 87.6 µM |  | 49.7 µM |  | > 100 µM |  | > 100 µM |  |  |  | > 100 µM |  | > 100 µM |  | > 100 µM |  | 82.8 µM |  | 70.6 µM
CC(=O)Nc1cc2cc(NS(=O)(=O)c3ccc(Cl)c(Cl)c3)ccc2oc1=O |  | 40.7 µM |  | > 100 µM |  | 82.2 µM |  | > 100 µM |  | 59.7 µM |  | > 100 µM |  |  |  | > 100 µM |  | 31.6 µM |  | 44.5 µM
COc1cc2ncnc(Nc3ccc(Oc4ccnc(C)c4)c(C)c3)c2cc1NC(=O)CC1CCSS1 (stereo not drawn) | 7.94 µM | 22.8 µM |  |  |  |  | 1040 nM | 2.31 µM | 1120 nM | 3.21 µM | 253 nM | 1.18 µM |  |  | 134 nM | 0.435 µM | 2190 nM | > 50 µM |  | 
